Measurements from patent publication US11839637B2, “Neuron activator” (Kinjirushi Co., Ltd., priority 2017, dated 2023).

Key:
Type in all cases: cell-based, rat
PC12 cells [1] = assay: Hydrogen peroxide toxicity resistance test, MTT (Experimental example 6); conditions: for MTT assay in medium with hydrogen peroxide: hydrogen peroxide 100 μM, component alone or combination with 6-MSITC
Method: In Experimental example 6, resistance of PC12 cells against hydrogen peroxide was tested. The test method is the same as that of Experimental example 5, except that hydrogen peroxide was added to the differentiation medium B, instead of amyloid β in Experimental example 5 above. A concentration of hydrogen peroxide in the differentiation medium B was 100 μM.

PC12 cells [2] = assay: Dopamine production test of PC12 cells (Experimental example 1); conditions: 72 hours; for dopamine-producing ability, as compared to a case without these components: any one component in the medium, NGF 50 ng/ml
Method: Dopamine production tests of PC12 cells, using various components, were carried out as follows.
(§1) Such passage was repeated at least three times.
(§2) Supernatants were removed.
(§3) Each sample is numbered 1 to 39.
A concentration of dopamine in each supernatant was measured. Measurement of dopamine concentration was carried out using ELIZA KIT (manufactured by ImmuSmol, Product No.: BA-E-5300) according to the specifications. A ratio of dopamine concentration in each supernatant was expressed as a percentage (%) of a control of which dopamine concentration in the supernatant is 1.
The same applies to FIGS. 2 to 5. In FIG. 1, τ means statistically significant. * means that synergistic effect was confirmed by combining two components. Synergistic effect herein means that use of two components in combination can produce more amount of dopamine than a sum of amounts of dopamine produced when each component is used alone.

PC12 cells [3] = assay: Neurite extension test of PC12 cells (Experimental example 3); conditions: 72 hours; for neurite extension effect, as compared to a case without these components: any one component in the medium, NGF 50 ng/ml
Method: Neurite extension tests of PC12 cells, using various components, were carried out as follows.
as §1, §2, §3
Supernatants were removed. Three microscopic images (bright field, ×10 images, three wells per well) of PC12 cells settled in each well were taken. The shape of the whole PC12 cells in the images was observed. A shown in FIG. 6, when PC12 cells undergo differentiation, a neurite 2 extends from a cell body 1. The total number of PC12 cells, and the number of cells having the neurite 2 with a length L2 were counted. The length L2 is a longer length than a longer diameter L1 of the cell body 1. The number of cells having the neurite with the length L2 was divided by the total number of cells to obtain an extension percentage of the PC12 cells. […] The extension percentage was expressed by an average value of all PC12 cells appearing in all images. […] The same applies to FIGS. 8 to 11. […] Synergistic effect herein means that use of two components in combination can increase the extension percentage as compared to a sum of extension percentages when each component is used alone.

PC12 cells [4] = assay: Toxicity test to PC12 cells using MTT reagent (Experimental example 2); conditions: 72 hours, 6-MSITC and DHA 2.5-160 μM, curcumin 2.5-40 μM, isorhamnetin 0.02-10 μM
Method: In order to investigate toxicity of each component to PC12 cells, the PC12 cells were cultured in the same manner as in the above steps (1) to (4) of Experimental example 1, except for components added to the medium.
as §2

PC12 cells [5] = assay: Toxicity test to PC12 cells using MTT reagent (Experimental example 4); conditions: 72 hours, 6-MSITC and DHA 2.5-160 μM, curcumin 2.5-40 μM, isorhamnetin 2.5-20 μM
Method: In order to investigate toxicity of each component to PC12 cells, the PC12 cells were cultured in the same manner as in the above steps (1) to (4) of Experimental example 3, except for components added to the medium.
as §2

SMILES	MTT assay in medium with hydrogen peroxide (PC12 cells [1])	amount of dopamine production produced by the PC12 cells vs control (PC12 cells [2]; 0.1 μM added to the medium)	amount of dopamine production produced by the PC12 cells vs control (PC12 cells [2]; 2.5 μM added to the medium)	dopamine-producing ability, as compared to a case without these components (PC12 cells [2])	extension of PC12 cells (extension percentage) (PC12 cells [3]; 0.1 μM added to the medium)	extension of PC12 cells (extension percentage) (PC12 cells [3]; 0.5 μM added to the medium)	extension of PC12 cells (extension percentage) (PC12 cells [3]; 2.5 μM added to the medium)	neurite extension effect, as compared to a case without these components (PC12 cells [3])	MTT assay, as compared to the medium without hydrogen peroxide (control) (PC12 cells [1]; medium containing only hydrogen peroxide, 100 μM)	amount of dopamine production produced by the PC12 cells vs control (PC12 cells [2]; 0.02 μM added to the medium)	amount of dopamine production produced by the PC12 cells vs control (PC12 cells [2]; 0.5 μM added to the medium)	MTT assay compared with control (not using the component) (PC12 cells [4])	toxicity to PC12 cells (PC12 cells [4]; MTT)	MTT assay compared with control (not using the component) (PC12 cells [5])	toxicity to PC12 cells (PC12 cells [5]; MTT)	extension of PC12 cells (extension percentage) (PC12 cells [3]; 0.02 μM added to the medium)
COc1cc(/C=C/C(=O)CC(=O)/C=C/c2ccc(O)c(OC)c2)ccc1O [curcumin, Curcumin]	a value without problem	higher than the control	higher than the control	enhanced	significant extension enhancement	significant extension enhancement	significant extension enhancement	enhanced	–	–	–	–	–	–	–	–
OO [hydrogen peroxide, reference compound]	–	–	–	–	–	–	–	–	significantly decreased	–	–	–	–	–	–	–
COc1cc(-c2oc3cc(O)cc(O)c3c(=O)c2O)ccc1O [isorhamnetin, Isorhamnetin]	a value without problem	higher than the control	–	enhanced	significant extension enhancement	significant extension enhancement	–	enhanced	–	higher than the control	higher than the control	higher than the case of not using them (control)	low	higher than the case of not using them (control)	low	significant extension enhancement
